The record followed here is patent US12053473B2, “Benzylamino substituted quinazolines and derivatives as SOS1 inhibitors” (priority 2016, dated 2024).

The target of one test is SOS1 and KRAS G12D (protein-protein interaction) (Homo sapiens, UniProt Q07889). In words: KRAS::SOS1 AlphaScreen binding assay.
Details: not given
As for the experimental part: KRAS::SOS1 AlphaScreen Binding Assay
Low IC50 values are indicative of high potency of the SOS1 inhibitor compound in this assay setting:
10 nM (final assay concentration) KRAS G12D, 10 μM (final assay concentration) GDP and 5 nM (final assay concentration) GST-SOS1 are mixed in assay buffer prior to use and kept at room temperature.
AlphaLSA Glutathione Acceptor Beads and AlphaScreen Streptavidin Donor Beads are mixed in assay buffer at a concentration of 10 μg/mL (final assay concentration) each prior to use and kept at room temperature.
Compounds are diluted to a final start concentration of 100 μM and are tested in duplicate. […] For compound a start concentration of 100 μM, 150 nL of compound solution is transferred per well in 11 concentrations in duplicate with serial 1:5 dilutions.
The assay is run using a fully automated robotic system in a darkened room below 100 Lux. 10 μL of KRAS::SOS1 GDP mix is added into columns 1-24 to the 150 nL of compound solution (final dilution in the assay 1:100, final DMSO concentration 1%).
After a 30 minute incubation time 5 μL of bead mix is added into columns 1-23. Plates are kept at room temperature in a darkened incubator. After a further 60 minute incubation, the signal is measured using a PerkinElmer Envision HTS Multilabel Reader using the AlphaScreen specifications from PerkinElmer. Each plate contains the following controls: • diluted DMSO+KRAS::SOS1 GDP mix+bead mix • diluted DMSO+KRAS::SOS1 GDP mix Result Calculation:
IC50 values are calculated and analyzed using a 4 parametric logistic model.
What is called IC50 is the concentration that gives 50% inhibition. For the compound `COc1cc2nc(C)nc(N[C@H](C)c3cccc(C(F)(F)F)c3)c2cc1[C@]1(O)CC[C@@H](O)CC1` [I-57], the IC50 worked out at 10 nM.
`COCCN1CCN(C(=O)[C@H]2CC[C@@H](c3cc4c(N[C@H](C)c5cc(N)cc(C(F)(F)F)c5F)nc(C)nc4cc3OC)CC2)CC1` [I-247] had an IC50 of 18 nM.
Still for that read-out and setting: then `Cc1nc(N[C@H](C)c2cccc(C(F)(F)F)c2)c2cc([C@]3(O)CC[C@H](O)CC3)cc(C)c2n1` [I-55], with 20 nM; and `COc1cc2nc(C)nc(N[C@H](C)c3cccc(C(F)(F)F)c3F)c2cc1[C@]1(O)CC[C@@H](O)CC1` [I-58], with 6 nM.

Staying with this test, now noted: assay buffer with 100 μM EDTA (values marked with an asterisk); read-out: IC50 (SOS1).
Regarding `Cc1nc(N[C@H](C)c2cccc(Cl)c2)c2cc(C3=CCNCC3)ccc2n1` [I-172], the IC50 came to 39 nM.
Regarding `Cc1nc(N[C@H](C)c2cccc(C(F)(F)F)c2)c2cc(C3CCNCC3)ccc2n1` [I-182], the IC50 came out at 22 nM.
Same read-out and setting: then `COc1cc2nc(C)nc(N[C@H](C)c3cccc(S(C)(=O)=O)c3)c2cc1O[C@H]1CCOC1` [I-3], with 47 nM; and `Cc1cccc([C@@H](C)Nc2nc(C)nc3ccc(C4CCNCC4)cc23)c1` [I-183], with 38 nM; and `Cc1nc(N[C@H](C)c2cccc(Cl)c2F)c2cc(C3=CCNCC3)ccc2n1` [I-170], with 24 nM.

Still in this test, the particulars now being: assay buffer without EDTA (values not marked with an asterisk); read-out: IC50 (SOS1).
In the case of `Cc1cccc([C@@H](C)Nc2nc(C)nc3c(C)cc(C4CCN(CC(=O)O)CC4)cc23)c1` [I-292], the IC50 was found to be 28 nM.
The same measure, in the same setting: then `COc1cc2nc(C)nc(N[C@H](C)c3cccc(C(F)(F)F)c3F)c2cc1C1(O)CCC(C(=O)N(C)C)CC1` (some centres unmarked) [I-77], with 5 nM; and `COCC(=O)N1CCC(O)(c2ccc3nc(C)nc(N[C@H](C)c4cccc(C(F)(F)F)c4)c3c2)CC1` [I-49], with 9 nM; and `COc1c(C2(O)CCN(C(C)=O)CC2)cc2c(N[C@H](C)c3cccc(C(F)(F)F)c3F)nc(C)nc2c1C` [I-20], with 7 nM.
As to `Cc1nc(N[C@H](C)c2cccc(C(F)(F)F)c2)c2cc([C@]3(O)CC[C@H](C(=O)N(C)C)CC3)ccc2n1` [I-78], the IC50 came out at 27 nM.
The same measure, in the same setting: then `COc1cc2nc(C)nc(N[C@H](C)c3cc(N)cc(C(F)(F)F)c3)c2cc1O[C@H]1CCN(C(C)=O)C1` [I-7], with 3 nM.
The same measure, in the same setting: then `CC(=O)N1CC2(C1)CC(O)(c1cc(C)c3nc(C)nc(N[C@H](C)c4cccc(C(F)(F)F)c4)c3c1)C2` [I-42], with 26 nM.
In the case of `COc1cc2nc(C)nc(N[C@H](C)c3cccc(C(F)(F)F)c3)c2cc1O[C@H]1CCN(C(C)=O)C1` [I-5], the IC50 was found to be 13 nM.
Same read-out and setting: the same measure for `COc1cc2nc(C)nc(N[C@H](C)c3cccc(C(F)(F)F)c3)c2cc1-c1ccc(C(=O)N(C)C)nc1` [I-189]: 23 nM.
`Cc1nc(N[C@H](C)c2cccc(C(F)(F)F)c2)c2cc(C3CCOCC3)ccc2n1` [I-153]: the IC50 came out at 33 nM.
Turning to `Cc1nc(N[C@H](C)c2cccc(C(F)(F)F)c2)c2cc(C3(O)CCS(=O)(=O)CC3)ccc2n1` [I-21], the IC50 is 20 nM.
As to `CC(=O)N1CC[C@H](Oc2cc3c(N[C@H](C)c4cc(N)cc(C(F)(F)F)c4)nc(C)nc3cc2F)C1` [I-8], the IC50 was 6 nM.
With `Cc1cccc([C@@H](C)Nc2nc(C)nc3cc(C)c(C4CCN(C(C)C)CC4)cc23)c1` [I-288], the IC50 was found to be 22 nM.
Same read-out and setting: then `COCC(=O)N1CCC(O)(c2cc3c(N[C@H](C)c4cccc(C(F)(F)F)c4)nc(C)nc3cc2OC)CC1` [I-47], with 5 nM.
The same measure, in the same setting: then `COc1cc2nc(C)nc(N[C@H](C)c3cccc(C(F)(F)CO)c3)c2cc1O[C@H]1CCOC1` [I-1], with 3 nM.

The same test, now with this note: read-out: IC50 (SOS1).
Turning to `CONC(=O)CC(C)c1cc2c(N[C@H](C)c3cccc(C(F)(F)F)c3)nc(C)nc2cc1C` (some centres unmarked) [I-378], the IC50 is 8 nM.
`Cc1nc(N[C@H](C)c2cc(N)cc(C(F)(F)F)c2)c2cc(-c3cnn(CC(=O)N(C)C)c3)ccc2n1` [I-86]: the IC50 came to 8 nM.
Same read-out and setting: then `Cc1nc(N[C@H](C)c2cccc(C(F)(F)F)c2)c2cc(C(C)CC(=O)NC3CC3)c(C)cc2n1` (some centres unmarked) [I-379], with 12 nM; and `COCC(=O)N1CCC(c2cc3c(N[C@H](C)c4cccc(C)c4)nc(C)nc3cc2C)CC1` [I-272], with 34 nM.
As for `COCC(=O)N1CCC(c2ccc3nc(C)nc(N[C@H](C)c4cc(N)cc(C(F)(F)F)c4)c3c2)CC1` [I-314], the IC50 turned out to be 2 nM.
On the same count and under the same terms, the same measure for `COc1cc2nc(C)nc(N[C@H](C)c3cccc(C)c3)c2cc1C1CCN(C(C)=O)CC1` [I-281]: 12 nM.
Turning to `COC1CN(C(=O)[C@H]2CC[C@H](c3ccc4nc(C)nc(N[C@H](C)c5cccc(C(F)(F)F)c5)c4c3)CC2)C1` [I-230], the IC50 worked out at 32 nM.
On to `Cc1nc(N[C@H](C)c2cc(N)cc(C(F)(F)F)c2)c2cc(-c3ccc(=O)[nH]c3)ccc2n1` [I-102], for which the IC50 worked out at 9 nM.
Take `Cc1nc(N[C@H](C)c2cc(N)cc(C(F)(F)F)c2)c2cc(C3CCS(=O)(=O)CC3)c(F)cc2n1` [I-320]: the IC50 worked out at 4 nM.
On the same count and under the same terms, then `COCC(=O)N1CCC(c2cc3c(N[C@H](C)c4cc(N)cc(C(F)(F)F)c4)nc(C)nc3cc2C)CC1` [I-315], with 3 nM; and `Cc1nc(N[C@H](C)c2cc(N)cc(C(F)(F)F)c2)c2cc([C@H]3CC[C@@H](C(=O)N(C)CCO)CC3)ccc2n1` [I-253], with 7 nM.
On to `COc1cc2nc(C)nc(N[C@H](C)c3cc(N)cc(C(F)(F)F)c3)c2cc1[C@H]1CC[C@@H](C(=O)N2CCOCC2)CC1` [I-360], for which the IC50 worked out at 25 nM.
The same measure, in the same setting: the same measure for `COc1cc2nc(C)nc(N[C@H](C)c3cc(N)cc(C(F)(F)F)c3F)c2cc1[C@H]1CC[C@@H](C(=O)N(C)C)CC1` [I-245]: 35 nM.
Same read-out and setting: then `COc1cc2nc(C)nc(N[C@H](C)c3cccc(C(F)(F)CO)c3)c2cc1C1=CCN(C(C)=O)CC1` [I-287], with 2 nM.
Same read-out and setting: then `Cc1nc(N[C@H](C)c2cc(N)cc(C(F)(F)F)c2)c2cc([C@H]3CC[C@H](C(=O)N4CCN(C)CC4)CC3)cc(C)c2n1` [I-361], with 5 nM; and `COCCN1CCN(C(=O)[C@H]2CC[C@@H](c3ccc4nc(C)nc(N[C@H](C)c5cc(N)cc(C(F)(F)F)c5)c4c3)CC2)CC1` [I-241], with 7 nM; and `CNC(=O)CC(C)c1cc2c(N[C@H](C)c3cccc(C(F)(F)F)c3)nc(C)nc2cc1OC` (some centres unmarked) [I-381], with 17 nM.
For the compound `COc1cc2nc(C)nc(N[C@H](C)c3cccc(C(F)(F)F)c3)c2cc1C1CCN(C(C)=O)CC1` [I-308], the IC50 turned out to be 9 nM.
Regarding `COc1cc2nc(C)nc(N[C@H](C)c3cccc(C(F)(F)F)c3)c2cc1-c1ccc(C(=O)N2CCOCC2)cc1` [I-215], the concentration for half-maximal inhibition (IC50) was 37 nM.
Still for that read-out and setting: the same measure for `Cc1nc(N[C@H](C)c2cc(N)cc(C(F)(F)F)c2)c2cc([C@H]3CC[C@H](C(=O)N(C)C[C@@H](C)O)CC3)ccc2n1` [I-256]: 3 nM; for `Cc1nc(N[C@H](C)c2cc(N)cc(C(F)(F)F)c2)c2cc(C3=CCS(=O)(=O)CC3)cc(C)c2n1` [I-364]: 11 nM.
Take `CC(=O)N1CC=C(c2ccc3nc(C)nc(N[C@H](C)c4cccc(C(F)(F)F)c4)c3c2)CC1` [I-221]: the IC50 amounted to 11 nM.
On to `COc1cc2nc(C)nc(N[C@H](C)c3cc(N)cc(C(F)(F)F)c3)c2cc1[C@H]1CC[C@H](C(=O)N2CCN(C)CC2)CC1` [I-353], for which the IC50 was 2 nM.
On to `COc1cc2nc(C)nc(N[C@H](C)c3cc(N)cc(C(F)(F)F)c3)c2cc1[C@H]1CC[C@@H](C(=O)N2CCN(C)CC2)CC1` [I-354], for which the IC50 was 22 nM.
Take `CC(=O)N1CCC(c2cc3c(N[C@H](C)c4cccc(C)c4)nc(C)nc3cc2C)CC1` [I-271]: the IC50 came to 24 nM.
Same read-out and setting: the same measure for `COCCN(C)C(=O)[C@H]1CC[C@H](c2cc3c(N[C@H](C)c4cc(N)cc(C(F)(F)F)c4)nc(C)nc3cc2OC)CC1` [I-357]: 3 nM.
In the case of `CC(=O)N1CCC(c2ccc3nc(C)nc(N[C@H](C)c4cccc(C(F)(F)F)c4)c3c2)CC1` [I-280], the IC50 amounted to 17 nM.
Regarding `COCCN(C)C(=O)[C@H]1CC[C@H](c2ccc3nc(C)nc(N[C@H](C)c4cc(N)cc(C(F)(F)F)c4)c3c2)CC1` [I-236], the IC50 worked out at 2 nM.
On to `Cc1cccc([C@@H](C)Nc2nc(C)nc3cc(C)c(-c4ccc(C(=O)N5CCOCC5)cc4)cc23)c1` [I-83], for which the IC50 worked out at 44 nM.
Consider `COCCN(C)C(=O)[C@H]1CC[C@@H](c2cc3c(N[C@H](C)c4cc(N)cc(C(F)(F)F)c4)nc(C)nc3cc2OC)CC1` [I-358], for which the IC50 worked out at 49 nM.
On the same count and under the same terms, the same measure for `CCn1cc(-c2cc3c(N[C@H](C)c4cc(N)cc(C(F)(F)F)c4)nc(C)nc3cc2OC)ccc1=O` [I-350]: 9 nM; for `COc1cc2nc(C)nc(N[C@H](C)c3cc(N)cc(C(F)(F)F)c3)c2cc1[C@H]1CC[C@@H](C(=O)N(C)C)CC1` [I-356]: 34 nM.
Consider `COc1cc2nc(C)nc(N[C@H](C)c3cccc(C(F)(F)F)c3)c2cc1-c1ccc(C(=O)N(C)C)c(C)c1` [I-216], for which the IC50 amounted to 48 nM.

The test is the same for the next values; noted with them: values marked with * in the table; read-out: IC50 (SOS1).
Regarding `COc1cc2nc(C)nc(N[C@H](C)c3cccc(C)c3)c2cc1-c1ccc(=O)n(CC(=O)N(C)C)c1` [I-335], the IC50 was determined as 27 nM.
As to `Cc1nc(N[C@H](C)c2cc(N)cc(C(F)(F)F)c2)c2cc(-c3ccc(=O)n(C)c3)ccc2n1` [I-104], the IC50 worked out at 6 nM.
